Laboratory results taken from ChEMBL document CHEMBL2169873, “Binding sites of retinol and retinoic acid with serum albumins” (Eur J Med Chem, 2012).

Experiments:
Assay type in all cases: ADME; call rule not given here
[1] = target: T1, Albumin (Bos taurus, UniProt P02769); test: Binding affinity to bovine serum albumin random coil at 0.5 mM by circular dichroism analysis; conditions: cattle, isolated protein, 500 µM
[2] = target: T1, Albumin; test: Binding affinity to bovine serum albumin by fluorescence spectroscopy analysis; conditions: cattle, isolated protein
[3] = target: T1, Albumin; test: Binding affinity to bovine serum albumin turn at 0.5 mM by circular dichroism analysis; conditions: cattle, isolated protein, 500 µM
[4] = target: T1, Albumin; test: Binding affinity to bovine serum albumin beta-antiparallel (1692 to 1680 cm'-1) at 0.5 mM after 2 hrs by FTIR spectroscopic analysis; conditions: cattle, isolated protein, 500 µM
[5] = target: T1, Albumin; test: Binding affinity to bovine serum albumin alpha-helix at 0.5 mM by circular dichroism analysis; conditions: cattle, isolated protein, 500 µM
[6] = target: T1, Albumin; test: Binding affinity to bovine serum albumin at 0.125 mM after 2 hrs by FTIR spectroscopic analysis; conditions: cattle, isolated protein, 125 µM
[7] = target: T1, Albumin; test: Binding affinity to bovine serum albumin by fluorescence quenching assay; conditions: cattle, isolated protein
[8] = target: T1, Albumin; test: Binding affinity to bovine serum albumin beta-sheet (1640 to 1610 cm'-1) at 0.5 mM after 2 hrs by FTIR spectroscopic analysis; conditions: cattle, isolated protein, 500 µM
[9] = target: T1, Albumin; test: Binding affinity to bovine serum albumin beta-sheet at 0.5 mM by circular dichroism analysis; conditions: cattle, isolated protein, 500 µM
[10] = target: T1, Albumin; test: Binding affinity to bovine serum albumin turn (1680 to 1660 cm'-1) at 0.5 mM after 2 hrs by FTIR spectroscopic analysis; conditions: cattle, isolated protein, 500 µM
[11] = target: T1, Albumin; test: Binding affinity to bovine serum albumin random coil (1648 to 1641 cm'-1) at 0.5 mM after 2 hrs by FTIR spectroscopic analysis; conditions: cattle, isolated protein, 500 µM
[12] = target: T1, Albumin; test: Binding affinity to bovine serum albumin alpha-helix (1660 to 1650 cm'-1) at 0.5 mM after 2 hrs by FTIR spectroscopic analysis; conditions: cattle, isolated protein, 500 µM
[13] = target: T1, Albumin; test: Binding affinity to bovine serum albumin turn (1680 to 1660 cm'-1) at 0.1 mM after 2 hrs by FTIR spectroscopic analysis; conditions: cattle, isolated protein, 100 µM
[14] = target: T1, Albumin; test: Binding affinity to bovine serum albumin beta-sheet (1640 to 1610 cm'-1) at 0.1 mM after 2 hrs by FTIR spectroscopic analysis; conditions: cattle, isolated protein, 100 µM
[15] = target: T1, Albumin; test: Binding affinity to bovine serum albumin alpha-helix (1660 to 1650 cm'-1) at 0.1 mM after 2 hrs by FTIR spectroscopic analysis; conditions: cattle, isolated protein, 100 µM
[16] = target: T1, Albumin; test: Binding affinity to bovine serum albumin random coil (1648 to 1641 cm'-1) at 0.1 mM after 2 hrs by FTIR spectroscopic analysis; conditions: cattle, isolated protein, 100 µM
[17] = target: T1, Albumin; test: Binding affinity to bovine serum albumin beta-antiparallel (1692 to 1680 cm'-1) at 0.1 mM after 2 hrs by FTIR spectroscopic analysis; conditions: cattle, isolated protein, 100 µM

T1 sequence (P02769 whole entry): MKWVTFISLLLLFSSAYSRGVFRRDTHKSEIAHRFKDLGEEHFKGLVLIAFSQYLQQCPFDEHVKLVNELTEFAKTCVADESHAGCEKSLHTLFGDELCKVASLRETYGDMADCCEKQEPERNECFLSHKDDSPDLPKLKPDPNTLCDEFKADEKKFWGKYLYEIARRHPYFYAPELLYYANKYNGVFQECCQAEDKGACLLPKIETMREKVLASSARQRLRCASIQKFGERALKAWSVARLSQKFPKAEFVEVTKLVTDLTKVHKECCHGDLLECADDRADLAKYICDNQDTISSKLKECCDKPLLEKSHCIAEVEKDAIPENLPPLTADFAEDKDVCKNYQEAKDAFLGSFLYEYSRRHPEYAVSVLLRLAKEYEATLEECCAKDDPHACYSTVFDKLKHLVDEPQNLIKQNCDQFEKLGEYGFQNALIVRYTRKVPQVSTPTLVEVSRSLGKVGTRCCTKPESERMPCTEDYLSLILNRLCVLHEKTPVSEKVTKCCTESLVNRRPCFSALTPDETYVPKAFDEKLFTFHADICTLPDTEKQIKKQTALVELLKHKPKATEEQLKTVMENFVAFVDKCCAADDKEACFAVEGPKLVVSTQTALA

Compound | Activity [1] | K [2] | Activity [3] | Activity [4] | Activity [5] | Activity [6] | Kq [7] | Activity [8] | Activity [9] | Activity [10] | Activity [11] | Activity [12] | Activity [13] | Activity [14] | Activity [15] | Activity [16] | Activity [17]
CC1=C(/C=C/C(C)=C/C=C/C(C)=C/CO)C(C)(C)CCC1 [RETINOL] | 18% | 5.3 ×10⁶ /M | 14% | 10% | 52% | Active | 4.5 ×10¹³ /M/sec | 19% | 16% | 15% | 20% | 36% |  |  |  |  | 
CC1=C(/C=C/C(C)=C/C=C/C(C)=C/C(=O)O)C(C)(C)CCC1 [TRETINOIN] | 20% | 2.3 ×10⁶ /M | 18% |  | 44% | Active | 2.5 ×10¹³ /M/sec |  | 18% |  |  |  | 27% | 15% | 26% | 25% | 7%
